The subject of assay [1] is chronic lymphocytic leukaemia (CLL) cells. The note with it: Bates et al. 2016; cited from earlier work.
For assay [2], the system named is primary AML samples L-AML6 and L-AML419. Kind of assay: Blast cell colony assay (Methocult). The format is cell-based, human. The note with it: 13 days. The method, then: 1.5 mL of Methocult H4034 (STEMCELL Technologies) was aliquoted in 5 mL tubes (one tube/treatment/sample) and supplemented with 20 ng/mL of hIL-6 (Peprotech, 200-06). EX 1 and OXi4503 dilutions were added to respective tubes to the final concentrations 100 nM and 500 nM. DMSO was used as vehicle control. Samples were added to each tube to the final cell density: 2×10^4 cells/well for L-AML6 and L-AML419, 3×10^3 cells/well for AML136 and AML480. The tubes were shaken to mix drugs and cells with the Methocult and incubated at 37° C. for 10 min to remove bubbles. Samples were then plated in 24-well plates, 4 wells/treatment/sample in the 8 wells at the centre of the plate. The wells at the edges were filled with sterile water to avoid drying. Plates were incubated at 37° C. for 13 days before colonies were counted.
Blast cell colony assay. For colony assays AML MNC were plated in methylcellulose with added cytokines (see Methods) and colonies scored after 13 days. […] L-AML419 also formed a small number of colonies in the DMSO-treated wells, with fewer background cells.

For assay [3], the system named is Caspase 3/7 activity in primary AML MNC samples. Nature of the assay: Caspase-Glo 3/7 assay in primary AML samples. It counts as cell-based, human. The method, then:
Cryopreserved mononuclear cells (MNC from BM or leukapheresis samples) were thawed in a water bath at 37° C. and cell suspension transferred to a 50 mL tube. 20 mL of IMDM media (Sigma, 13390) supplemented with 20% FBS (JRH Biosciences), 50 U/mL DNase I (Sigma), 100 IU/mL penicillin (Sigma), 100 μg/mL streptomycin (Sigma) and 2 mM L-glutamine (Sigma) was added dropwise to the cells while the tube was being vortexed slowly (or mixed by hand). The cells were centrifuged at 400 g for 5 min, supernatant was discarded and the cells were washed once with 20 mL PBS. […] The next morning, viability was determined by trypan blue exclusion and samples with viability lower than 85% underwent dead cell removal by density gradient centrifugation as follows: 15 mL of Lymphoprep (AXIS-Shield) was transferred to a 50 mL tube and the cell suspension (25 mL) carefully overlayed (so as not to disturb the interface mixing with the Lymphoprep). […] Viability and cell density were determined by trypan blue exclusion and cells were plated for respective experiments as described in the Results section.
10^4 cells (10 μL) of each sample/treatment were aliquoted in triplicate wells of a 96-well plate (white wall OptiPlate 96, Perkin Elmer) containing 40 μL complete media. […] Luminescence was measured with a FLOUstar OPTIMA plate reader (BMG Labtech). […]

Assay [4] concerns AML cell lines. Nature of the assay: Total ROS assay (CM-H2DCFDA, flow cytometry). The format is cell-based. The method, then: 1.25×10^5 cells were harvested into 5 mL tubes and washed with PBS. […] All tubes were incubated at 37° C. for 20 min and then cells washed 3 times with PBS. Cells were resuspended in 300 μL PBS and analysed on an LSRFortessa (BD Biosciences) flow cytometer. Results were analysed with FCS Express 4 Flow Research Edition software (De Novo Software).
For that, cells were plated at 10^6 cells/mL and treated with vehicle (DMSO) alone or a range of doses of EX 1 (0.1 nM, 1 nM, 10 nM and 100 nM) for 6 h, 8 h and 24 h. Cells were harvested for detection of ROS and superoxide anion (O2^·−) levels at 6 h and 24 h, for protein extraction at 8 h and 24 h, and for cell cycle analysis at 24 h.
Total ROS levels were measured by flow cytometry using the fluorogenic dye CM-H2DCFDA at a final concentration of 5 μM. Mitochondria superoxide anion (O2^·−) levels were measured by flow cytometry using MitoSox, also at a final concentration of 5 μM.

[5] abbreviates: L-AML419, all doses (100 nM and 500 nM).

Each structure is given as a SMILES string. “Also recorded” adds a separate entry of the source.

Consider `COc1cc(C(=O)c2c(C)oc3c(O)c(OC)ccc23)cc(OC)c1OC` [EX 1, 2-Methyl-7-hydroxy-3-(3,4,5-trimethoxybenzoyl)-6-methoxybenzofuran], for which, in assay [1], the “apoptosis via P-JNK and Noxa” value was “induce apoptosis”. Besides, the colony formation result in assay [2] (L-AML6, either dose (100 nM and 500 nM)) is “no colonies or background cells were observed; also recorded: Colony formation is blocked”; in assay [2] (setting [5]) it was “completely blocked colony and background formation; also recorded: Colony formation is blocked”. Besides, the “caspase 3/7 activity” value in assay [3] (AML480, 24 h) is “some increase in caspase activity”. In assay [3] (all the AML samples, 48 h), the “caspase 3/7 activity compared to DMSO” value is given as “increase in caspase activity”. Moreover, the “total ROS levels” value in assay [4] (OCI-AML3, 24 h) is “dose response reduction in total ROS”; in assay [4] (the other cell lines (not OCI-AML3), 6 h and 24 h), “none of the other cell lines showed any changes in total ROS levels”.

With `COc1cc(/C=C\c2ccc(OC)c(OP(=O)(O)O)c2OP(=O)(O)O)cc(OC)c1OC` [OXi4503, reference compound], the colony formation entry in assay [2] (L-AML6, 100 nM) was “reduced the background cells and also the number of colonies; also recorded: reduces colony formation”; in assay [2] (L-AML6, 500 nM) it was “completely blocked colony formation; also recorded: completely inhibits colonies”; in assay [2] (setting [5]), “completely blocked colony and background formation; also recorded: completely inhibits colonies”.

The values are drawn from patent US11478445B2, “Method for treating acute myeloid leukemia” (Bionomics Limited, priority 2017, dated 2022).
